{
  "source": "paper PMC5007552",
  "about": "“The hVps34‐SGK3 pathway alleviates sustained PI3K/Akt inhibition by stimulating mTORC1 and tumour growth” (The EMBO Journal, 2016)",
  "tested_on": "ZR-75-1 cells",
  "test": "NanoString human kinome mRNA quantification",
  "type": "cell-based",
  "details": "for Normalised counts: single replicates",
  "description": "Human mRNAs were hybridised to NanoString human kinome and control code sets, then subjected to quantification using NanoString software. […] To permit data compaction, and simple kinome‐wide comparisons, the fold changes are log2 transformed. […] Cell pellets were resuspended at a concentration of ~6,500 cells/μl in RLT buffer (Qiagen). […] For total copy numbers, triplicate normalised count values were averaged, and to calculate fold induction, means were divided by triplicate mean values from matched DMSO controls. P‐values were calculated using unpaired t‐test (GraphPad Prism software) by employing treated and control count data for each kinase mRNA.",
  "note": "Where “and” joins values, the source holds several entries; their conditions need not be identical. Equal values may be shown once.",
  "data": [
    {"compound": "NC1(c2ccc(-c3nc4ccn5c(=O)[nH]nc5c4cc3-c3ccccc3)cc2)CCC1", "note": "[MK-2206]", "values": [
      {"measurement": "CDK18 normalised counts (replicates)", "setting": "CDK18 mRNA", "result": "93.28 and 102.4 and 103.9"},
      {"measurement": "CDK19 average normalised counts", "setting": "CDK19 mRNA", "result": 336.707},
      {"measurement": "CDK19 normalised counts (replicates)", "setting": "CDK19 mRNA", "result": "340.52 and 347.39 and 322.21"},
      {"measurement": "CDK20 average normalised counts", "setting": "CDK20 mRNA", "result": 89.7167},
      {"measurement": "CDK20 normalised counts (replicates)", "setting": "CDK20 mRNA", "result": "106.01 and 80.68 and 82.46"},
      {"measurement": "CDKL1 average normalised counts", "setting": "CDKL1 mRNA", "result": 1},
      {"measurement": "CDKL1 normalised counts (replicates)", "setting": "CDKL1 mRNA", "result": 1},
      {"measurement": "CDKL2 average normalised counts", "setting": "CDKL2 mRNA", "result": 5.853},
      {"measurement": "CDKL2 normalised counts (replicates)", "setting": "CDKL2 mRNA", "result": "6.93 and 5.97 and 4.66"},
      {"measurement": "CDKL3 average normalised counts", "setting": "CDKL3 mRNA", "result": 93.1667},
      {"measurement": "CDKL3 normalised counts (replicates)", "setting": "CDKL3 mRNA", "result": "98.74 and 82.42 and 98.34"},
      {"measurement": "CDKL4 average normalised counts", "setting": "CDKL4 mRNA", "result": 49.8833},
      {"measurement": "CDKL4 normalised counts (replicates)", "setting": "CDKL4 mRNA", "result": "49.65 and 57.23 and 42.77"},
      {"measurement": "CDKL5 average normalised counts", "setting": "CDKL5 mRNA", "result": 46.4467},
      {"measurement": "CDKL5 normalised counts (replicates)", "setting": "CDKL5 mRNA", "result": "46.93 and 52.02 and 40.39"},
      {"measurement": "CHEK1 average normalised counts", "setting": "CHEK1 mRNA", "result": 416.797},
      {"measurement": "CHEK1 normalised counts (replicates)", "setting": "CHEK1 mRNA", "result": "440.51 and 390.82 and 419.06"},
      {"measurement": "CHEK2 average normalised counts", "setting": "CHEK2 mRNA", "result": 813.71},
      {"measurement": "CHEK2 normalised counts (replicates)", "setting": "CHEK2 mRNA", "result": "824.09 and 812.16 and 804.88"},
      {"measurement": "CHUK average normalised counts", "setting": "CHUK mRNA", "result": 732.773},
      {"measurement": "CHUK normalised counts (replicates)", "setting": "CHUK mRNA", "result": "715.01 and 761.78 and 721.53"},
      {"measurement": "CIT average normalised counts", "setting": "CIT mRNA", "result": 394.403},
      {"measurement": "CIT normalised counts (replicates)", "setting": "CIT mRNA", "result": "393.24 and 389.96 and 400.01"},
      {"measurement": "CLK1 average normalised counts", "setting": "CLK1 mRNA", "result": 994.453},
      {"measurement": "CLK1 normalised counts (replicates)", "setting": "CLK1 mRNA", "result": "974.07 and 1043.25 and 966.04"},
      {"measurement": "CLK2 average normalised counts", "setting": "CLK2 mRNA", "result": 1169.5},
      {"measurement": "CLK2 normalised counts (replicates)", "setting": "CLK2 mRNA", "result": "1152.23 and 1182.25 and 1174.03"},
      {"measurement": "CLK3 average normalised counts", "setting": "CLK3 mRNA", "result": 710.143},
      {"measurement": "CLK3 normalised counts (replicates)", "setting": "CLK3 mRNA", "result": "731.38 and 705.31 and 693.74"},
      {"measurement": "CLK4 average normalised counts", "setting": "CLK4 mRNA", "result": 709.387},
      {"measurement": "CLK4 normalised counts (replicates)", "setting": "CLK4 mRNA", "result": "719.56 and 687.07 and 721.53"},
      {"measurement": "COL4A3BP average normalised counts", "setting": "COL4A3BP mRNA", "result": 420.653},
      {"measurement": "COL4A3BP normalised counts (replicates)", "setting": "COL4A3BP mRNA", "result": "415.06 and 433.39 and 413.51"},
      {"measurement": "CPNE3 normalised counts (replicates)", "setting": "CPNE3 mRNA", "result": 2313.35},
      {"measurement": "CSF1R average normalised counts", "setting": "CSF1R mRNA", "result": 1},
      {"measurement": "CSF1R normalised counts (replicates)", "setting": "CSF1R mRNA", "result": 1},
      {"measurement": "CSK average normalised counts", "setting": "CSK mRNA", "result": 629.517},
      {"measurement": "CSK normalised counts (replicates)", "setting": "CSK mRNA", "result": "633.21 and 603.67 and 651.67"},
      {"measurement": "CSNK1A1L average normalised counts", "setting": "CSNK1A1L mRNA", "result": 2.067},
      {"measurement": "CSNK1A1L normalised counts (replicates)", "setting": "CSNK1A1L mRNA", "result": "4.2 and 1 (2×)"},
      {"measurement": "CSNK1A1 average normalised counts", "setting": "CSNK1A1 mRNA", "result": 854.287},
      {"measurement": "CSNK1A1 normalised counts (replicates)", "setting": "CSNK1A1 mRNA", "result": "855.9 and 833.01 and 873.95"},
      {"measurement": "CSNK1D average normalised counts", "setting": "CSNK1D mRNA", "result": 6324.07},
      {"measurement": "CSNK1D normalised counts (replicates)", "setting": "CSNK1D mRNA", "result": "6300.6 and 6273.94 and 6397.68"},
      {"measurement": "CSNK1E average normalised counts", "setting": "CSNK1E mRNA", "result": 1485.08},
      {"measurement": "CSNK1E normalised counts (replicates)", "setting": "CSNK1E mRNA", "result": "1520.36 and 1448.08 and 1486.81"},
      {"measurement": "Average normalised counts", "setting": "CSNK1G1 mRNA", "result": 1243.9},
      {"measurement": "Normalised counts", "setting": "CSNK1G1 mRNA", "result": "1266.76 and 1245.67 and 1219.28"},
      {"measurement": "Average normalised counts", "setting": "CSNK1G2 mRNA", "result": 674.087},
      {"measurement": "Normalised counts", "setting": "CSNK1G2 mRNA", "result": "671.38 and 671.43 and 679.45"},
      {"measurement": "Average normalised counts", "setting": "CSNK1G3 mRNA", "result": 1032.23},
      {"measurement": "Normalised counts", "setting": "CSNK1G3 mRNA", "result": "1024.97 and 1049.33 and 1022.4"},
      {"measurement": "Average normalised counts", "setting": "CSNK2A1 mRNA", "result": 568.443},
      {"measurement": "Normalised counts", "setting": "CSNK2A1 mRNA", "result": "546.86 and 575.87 and 582.6"},
      {"measurement": "Average normalised counts", "setting": "CSNK2A2 mRNA", "result": 157.413},
      {"measurement": "Normalised counts", "setting": "CSNK2A2 mRNA", "result": "146.91 and 157.13 and 168.2"},
      {"measurement": "Average normalised counts", "setting": "DAPK1 mRNA", "result": 21.41},
      {"measurement": "Normalised counts", "setting": "DAPK1 mRNA", "result": "22.38 and 18.13 and 23.72"},
      {"measurement": "Average normalised counts", "setting": "DAPK2 mRNA", "result": 44.4967},
      {"measurement": "Normalised counts", "setting": "DAPK2 mRNA", "result": "37.84 and 52.88 and 42.77"},
      {"measurement": "Average normalised counts", "setting": "DCLK1 mRNA", "result": 64.6967},
      {"measurement": "Normalised counts", "setting": "DCLK1 mRNA", "result": "61.47 and 58.1 and 74.52"},
      {"measurement": "Average normalised counts", "setting": "DCLK2 mRNA", "result": 1},
      {"measurement": "Normalised counts", "setting": "DCLK2 mRNA", "result": 1},
      {"measurement": "Average normalised counts", "setting": "DCLK3 mRNA", "result": 1},
      {"measurement": "Normalised counts", "setting": "DCLK3 mRNA", "result": 1},
      {"measurement": "Normalised counts", "setting": "DDR1 mRNA", "result": 2268.77},
      {"measurement": "Average normalised counts", "setting": "DDR2 mRNA", "result": 24.12},
      {"measurement": "Normalised counts", "setting": "DDR2 mRNA", "result": "24.2 and 26.82"},
      {"measurement": "Average normalised counts", "setting": "DMPK mRNA", "result": 79.4267},
      {"measurement": "Normalised counts", "setting": "DMPK mRNA", "result": "89.65 and 78.08 and 70.55"},
      {"measurement": "Average normalised counts", "setting": "DSTYK mRNA", "result": 288.937},
      {"measurement": "Normalised counts", "setting": "DSTYK mRNA", "result": "315.98 and 310.3"},
      {"measurement": "Average normalised counts", "setting": "DYRK1A mRNA", "result": 1263.91},
      {"measurement": "Normalised counts", "setting": "DYRK1A mRNA", "result": "1248.58 and 1277.81 and 1265.33"},
      {"measurement": "Average normalised counts", "setting": "DYRK1B mRNA", "result": 113.827},
      {"measurement": "Normalised counts", "setting": "DYRK1B mRNA", "result": "104.19 and 111.96 and 125.33"},
      {"measurement": "Average normalised counts", "setting": "DYRK2 mRNA", "result": 852.053},
      {"measurement": "Normalised counts", "setting": "DYRK2 mRNA", "result": "855.9 and 810.43 and 889.83"},
      {"measurement": "Average normalised counts", "setting": "DYRK3 mRNA", "result": 83.6267},
      {"measurement": "Normalised counts", "setting": "DYRK3 mRNA", "result": "80.56 and 90.24 and 80.08"},
      {"measurement": "Average normalised counts", "setting": "DYRK4 mRNA", "result": 50.6933},
      {"measurement": "Normalised counts", "setting": "DYRK4 mRNA", "result": "52.38 and 53.75 and 45.95"},
      {"measurement": "Average normalised counts", "setting": "EEF2K mRNA", "result": 449.027},
      {"measurement": "Normalised counts", "setting": "EEF2K mRNA", "result": "425.05 and 457.72 and 464.31"},
      {"measurement": "Average normalised counts", "setting": "EGFR mRNA", "result": 78.07}
    ]}
  ]
}
